“And” between values parts separate entries of the source, which are not always exact repeats. Equal values may be shown once.
Columns and labels:
[1] = refractive index (other wavelength) (dimensionless); settings: 101.3 kPa, Liquid, Wavelength=632.8 nm, Minimum deviation technique
[2] = refractive index (other wavelength) (dimensionless); xn = mol fraction of the nth substance listed; settings: 101.3 kPa, Liquid, Wavelength=632.8 nm, Minimum deviation technique

COC(=O)CCCCC(=O)OC [dimethyl 1,6-hexanedioate]
[1]
Settings	refractive index
293.15 K	1.4275
294.14 K	1.4271
295.19 K	1.4267
296.25 K	1.4263
298.35 K	1.4254
299.4 K	1.425 and 1.4249
300.18 K	1.4246
301 K	1.4243
301.84 K	1.4239
302.58 K	1.4236
303.19 K	1.4234
303.88 K	1.4231

COC(=O)CCCCC(=O)OC [dimethyl 1,6-hexanedioate] + CCCCCCCC
[2], 299.79 K
Settings	refractive index
x1 = 0.099	1.3955
x1 = 0.2	1.3985
x1 = 0.302	1.4014
x1 = 0.4	1.4047
x1 = 0.5	1.408
x1 = 0.602	1.4113
x1 = 0.701	1.4146
x1 = 0.8	1.418
x1 = 0.899	1.4214

COC(=O)CCCCC(=O)OC [dimethyl 1,6-hexanedioate] + CCCCCCCCC
[2], 305.07 K
Settings	refractive index
x1 = 0.101	1.4
x1 = 0.2	1.4017
x1 = 0.295	1.404
x1 = 0.39	1.406
x1 = 0.492	1.4085
x1 = 0.594	1.411
x1 = 0.713	1.4143
x1 = 0.79	1.4163
x1 = 0.902	1.4197

CCCCCCCCC [nonane]
[1]
Settings	refractive index
299.25 K	1.4015
300.07 K	1.4011
300.85 K	1.4007
301.85 K	1.4003
302.57 K	1.3999
303.3 K	1.3995
303.83 K	1.3993

CCCCCCCC [octane]
[1]
Settings	refractive index
293.23 K	1.3964
294.23 K	1.3959
295.29 K	1.3954
296.27 K	1.3949
297.41 K	1.3944
298.48 K	1.3939
299.5 K	1.3934

Reference: the NIST ThermoML archive (doi:10.1016/j.jct.2012.02.038)
